The text below walks through data of publication PMC5218480 (PLoS ONE, 2017).

The subject of this assay is MV-4-11 cells. The assay can be described thus: Gene expression microarray analysis (Affymetrix PrimeView) and GSEA. It is filed as cell-based, human. The conditions noted are these: MV-4-11 cells, 48 hours. Also on record: RFU PODN (11730768_x_at) / Fold change /veh PODN (11730768_x_at) / RFU LINC00158 (11744669_a_at) / Fold change /veh LINC00158 (11744669_a_at) / RFU DUSP10 (11751237_a_at) / Fold change /veh DUSP10 (11751237_a_at) / RFU ID3 (11757404_x_at) / Fold change /veh ID3 (11757404_x_at) / RFU PLEKHG5 (11737974_s_at) / Fold change /veh PLEKHG5 (11737974_s_at) / RFU LRRC4B (11730491_at) / Fold change /veh LRRC4B (11730491_at) / RFU GIMAP4 (11747438_a_at) / Fold change /veh GIMAP4 (11747438_a_at) / RFU KRT8 (11758183_x_at) / Fold change /veh KRT8 (11758183_x_at) / RFU CNN1 (11734310_a_at) / Fold change /veh CNN1 (11734310_a_at) / RFU VPS37D (11726825_at) / Fold change /veh VPS37D (11726825_at) / RFU C10orf10 (11716522_x_at) / Fold change /veh C10orf10 (11716522_x_at) / RFU KIR2DL2 /// KIR2DL4 /// KIR2DL5A /// KIR2DL5B /// KIR2DS1 /// KIR2DS2 /// KIR2DS3 /// KIR2DS4 /// KIR3DL3 /// KIR3DL3 /// KIR3DS1 (11738374_at) / Fold change /veh KIR2DL2 /// KIR2DL4 /// KIR2DL5A /// KIR2DL5B /// KIR2DS1 /// KIR2DS2 /// KIR2DS3 /// KIR2DS4 /// KIR3DL3 /// KIR3DL3 /// KIR3DS1 (11738374_at) / RFU C1QL1 (11718748_at) / Fold change /veh C1QL1 (11718748_at) / RFU TMPRSS4 (11747572_a_at) / Fold change /veh TMPRSS4 (11747572_a_at) / RFU HAMP (11756126_x_at) / Fold change /veh HAMP (11756126_x_at) / RFU RNFT2 (11725882_a_at) / Fold change /veh RNFT2 (11725882_a_at) / RFU NR4A2 (11747474_a_at) / Fold change /veh NR4A2 (11747474_a_at) / RFU ABCC12 (11746883_a_at) / Fold change /veh ABCC12 (11746883_a_at) / RFU TMEM136 (11760407_x_at) / Fold change /veh TMEM136 (11760407_x_at) / RFU CLDN22 /// WWC2 (11732394_at) / Fold change /veh CLDN22 /// WWC2 (11732394_at) / RFU HLA-DPB1 (11760878_x_at) / Fold change /veh HLA-DPB1 (11760878_x_at) / RFU SPINT1 (11716480_a_at) / Fold change /veh SPINT1 (11716480_a_at) / RFU GAP43 (11754022_s_at) / Fold change /veh GAP43 (11754022_s_at) / RFU A4GNT (11735810_at) / Fold change /veh A4GNT (11735810_at) / RFU PRB3 (11715151_x_at) / Fold change /veh PRB3 (11715151_x_at) / RFU TUBB4B (11761932_at) / Fold change /veh TUBB4B (11761932_at) / RFU CAPN14 (11732068_a_at) / Fold change /veh CAPN14 (11732068_a_at) / RFU TMCC2 (11721928_a_at) / Fold change /veh TMCC2 (11721928_a_at) / RFU IRGQ (11745062_a_at) / Fold change /veh IRGQ (11745062_a_at) / RFU FAM174B (11720279_a_at) / Fold change /veh FAM174B (11720279_a_at) / RFU TMPRSS4 (11748680_a_at) / Fold change /veh TMPRSS4 (11748680_a_at) / RFU FAM212B (11763350_a_at) / Fold change /veh FAM212B (11763350_a_at) / RFU PLEKHG5 (11743358_a_at) / Fold change /veh PLEKHG5 (11743358_a_at) / RFU ZSCAN30 (11745921_a_at) / Fold change /veh ZSCAN30 (11745921_a_at) / RFU CMKLR1 (11741424_a_at) / Fold change /veh CMKLR1 (11741424_a_at) / RFU LOC101060620 /// MAPK8IP1 (11723275_at) / Fold change /veh LOC101060620 /// MAPK8IP1 (11723275_at) / RFU SPTSSB (11747773_x_at) / Fold change /veh SPTSSB (11747773_x_at) / RFU PRSS12 (11739890_at) / Fold change /veh PRSS12 (11739890_at) / RFU BIN1 (11741810_x_at) / Fold change /veh BIN1 (11741810_x_at) / RFU WNT11 (11732464_a_at) / Fold change /veh WNT11 (11732464_a_at) / RFU C10orf10 (11716521_a_at) / Fold change /veh C10orf10 (11716521_a_at) / RFU C5orf56 (11738089_at) / Fold change /veh C5orf56 (11738089_at) / RFU CYB561 (11721691_x_at) / Fold change /veh CYB561 (11721691_x_at) / RFU ANKRD19P (11752326_a_at) / Fold change /veh ANKRD19P (11752326_a_at) / RFU OR2T12 /// OR2T33 /// OR2T8 (11738714_s_at) / Fold change /veh OR2T12 /// OR2T33 /// OR2T8 (11738714_s_at) / RFU VCAN (11748164_a_at) / Fold change /veh VCAN (11748164_a_at) / RFU JSRP1 (11732532_at) / Fold change /veh JSRP1 (11732532_at) / RFU KRTAP10-11 (11738290_x_at) / Fold change /veh KRTAP10-11 (11738290_x_at) / RFU MYO3A (11730013_a_at) / Fold change /veh MYO3A (11730013_a_at) / RFU EBF3 (11725865_a_at) / Fold change /veh EBF3 (11725865_a_at) / RFU CAMK2N1 (11719241_x_at) / Fold change /veh CAMK2N1 (11719241_x_at) / RFU C5orf56 (11738088_a_at) / Fold change /veh C5orf56 (11738088_a_at) / RFU OLFML3 (11715873_a_at) / Fold change /veh OLFML3 (11715873_a_at) / RFU LOC100653217 /// NTM (11731650_a_at) / Fold change /veh LOC100653217 /// NTM (11731650_a_at) / RFU MAPK11 (11762145_a_at) / Fold change /veh MAPK11 (11762145_a_at) / RFU FIZ1 (11724087_x_at) / Fold change /veh FIZ1 (11724087_x_at) / RFU OASL (11726364_x_at) / Fold change /veh OASL (11726364_x_at) / RFU SOX15 (11748057_x_at) / Fold change /veh SOX15 (11748057_x_at) / RFU CD79A (11719716_a_at) / Fold change /veh CD79A (11719716_a_at) / RFU HIST1H1D (11736915_at) / Fold change /veh HIST1H1D (11736915_at) / RFU CASKIN2 (11723855_a_at) / Fold change /veh CASKIN2 (11723855_a_at) / RFU LOC730098 (11760151_x_at) / Fold change /veh LOC730098 (11760151_x_at) / RFU OR4N2 (11742367_at) / Fold change /veh OR4N2 (11742367_at) / RFU PRRT2 (11749266_a_at) / Fold change /veh PRRT2 (11749266_a_at) / RFU SNX32 (11753110_a_at) / Fold change /veh SNX32 (11753110_a_at) / RFU CDHR5 (11726645_a_at) / Fold change /veh CDHR5 (11726645_a_at) / RFU RCAN1 (11760418_a_at) / Fold change /veh RCAN1 (11760418_a_at) / RFU FAM167A (11723789_a_at) / Fold change /veh FAM167A (11723789_a_at) / RFU FAM26E (11764081_at) / Fold change /veh FAM26E (11764081_at) / RFU ISYNA1 (11749810_s_at) / Fold change /veh ISYNA1 (11749810_s_at) / RFU ACY1 (11761880_at) / Fold change /veh ACY1 (11761880_at) / RFU 11764098_at / Fold change /veh 11764098_at / RFU SAMD14 (11745864_x_at) / Fold change /veh SAMD14 (11745864_x_at) / RFU NPB (11741838_a_at) / Fold change /veh NPB (11741838_a_at) / RFU TMPRSS6 (11731388_a_at) / Fold change /veh TMPRSS6 (11731388_a_at) / RFU KRTAP10-2 (11738614_at) / Fold change /veh KRTAP10-2 (11738614_at) / RFU ARHGAP8 /// PRR5-ARHGAP8 (11727945_x_at) / Fold change /veh ARHGAP8 /// PRR5-ARHGAP8 (11727945_x_at) / RFU KRTAP5-7 /// NADSYN1 (11734609_at) / Fold change /veh KRTAP5-7 /// NADSYN1 (11734609_at) / RFU RASL12 (11751679_a_at) / Fold change /veh RASL12 (11751679_a_at) / RFU CDKN2B (11736163_a_at) / Fold change /veh CDKN2B (11736163_a_at) / RFU PRF1 (11729649_at) / Fold change /veh PRF1 (11729649_at) / RFU, ZNF638 /// ZNF638-IT1 / Fold change vs veh, ZNF638 /// ZNF638-IT1 / RFU, PANK3 / Fold change vs veh, PANK3 / RFU, SH3YL1 / Fold change vs veh, SH3YL1 / RFU, ZEB2 / Fold change vs veh, ZEB2 / RFU, NRIP1 / Fold change vs veh, NRIP1 / RFU, PTTG1IP / Fold change vs veh, PTTG1IP / RFU, CAPN2 / Fold change vs veh, CAPN2 / RFU, MED14 / Fold change vs veh, MED14 / RFU, SNORA58 / Fold change vs veh, SNORA58 / RFU, C1orf63 / Fold change vs veh, C1orf63 / RFU, LRRFIP1 / Fold change vs veh, LRRFIP1 / RFU, NDUFAF7 / Fold change vs veh, NDUFAF7 / RFU, SLC12A2 / Fold change vs veh, SLC12A2 / RFU, IBTK / Fold change vs veh, IBTK / RFU, ESF1 / Fold change vs veh, ESF1 / Fold change vs veh, TMEM50B / RFU, TAOK1 / Fold change vs veh, TAOK1 / RFU, ACBD3 / Fold change vs veh, ACBD3 / RFU, TMA16 / Fold change vs veh, TMA16 / RFU, RWDD3 / Fold change vs veh, RWDD3 / RFU, BCAT1 / Fold change vs veh, BCAT1 / RFU, EDEM3 / Fold change vs veh, EDEM3 / RFU, TMEM33 / Fold change vs veh, TMEM33 / RFU, WDR75 / Fold change vs veh, WDR75 / RFU, AHCTF1 / Fold change vs veh, AHCTF1 / RFU, TFRC / Fold change vs veh, TFRC / RFU, ZDHHC17 / Fold change vs veh, ZDHHC17 / RFU, NOM1 / Fold change vs veh, NOM1 / RFU, ARL8B / Fold change vs veh, ARL8B / RFU, ZBTB11 / Fold change vs veh, ZBTB11 / RFU, TAMM41 / Fold change vs veh, TAMM41 / RFU, KIAA1704 /// LOC100996395 / Fold change vs veh, KIAA1704 /// LOC100996395 / RFU, ING1 / Fold change vs veh, ING1 / RFU, TRMT61B / Fold change vs veh, TRMT61B / RFU, FUBP3 / Fold change vs veh, FUBP3 / RFU, TP53 / Fold change vs veh, TP53 / RFU, TNKS2 / Fold change vs veh, TNKS2 / RFU, ZFP14 / Fold change vs veh, ZFP14 / RFU, ACTR2 / Fold change vs veh, ACTR2 / RFU, PPP3R1 / Fold change vs veh, PPP3R1 / RFU, PIK3R1 / Fold change vs veh, PIK3R1 / RFU, HNRNPA1 / Fold change vs veh, HNRNPA1 / RFU, RNF170 / Fold change vs veh, RNF170 / RFU, ZNF28 / Fold change vs veh, ZNF28 / RFU, RNGTT / Fold change vs veh, RNGTT / RFU, OGT / Fold change vs veh, OGT / RFU, BRD1 / Fold change vs veh, BRD1 / RFU, MARS / Fold change vs veh, MARS / RFU, ZNF655 / Fold change vs veh, ZNF655 / RFU, FAHD1 / Fold change vs veh, FAHD1 / RFU, BDP1 / Fold change vs veh, BDP1 / RFU, LRRCC1 / Fold change vs veh, LRRCC1 / RFU, ARID1A / Fold change vs veh, ARID1A / RFU, ZNF146 / Fold change vs veh, ZNF146 / RFU, ZNF330 / Fold change vs veh, ZNF330 / RFU, GPN3 / Fold change vs veh, GPN3 / RFU, C9orf123 / Fold change vs veh, C9orf123 / RFU, N4BP2L2 / Fold change vs veh, N4BP2L2 / RFU, ARFIP1 / Fold change vs veh, ARFIP1 / RFU, FAM179B / Fold change vs veh, FAM179B / RFU, BCL10 / Fold change vs veh, BCL10 / RFU, UHRF1BP1L / Fold change vs veh, UHRF1BP1L / RFU, BET1 / Fold change vs veh, BET1 / RFU, CNOT2 / Fold change vs veh, CNOT2 / RFU, ZNF268 / Fold change vs veh, ZNF268 / Fold change vs veh, ZNF507 / RFU, DGCR2 / Fold change vs veh, DGCR2 / RFU, WDSUB1 / Fold change vs veh, WDSUB1 / Fold change vs veh, HSP90B1 /// MIR3652 / RFU, ADSS / Fold change vs veh, ADSS / RFU, GK / Fold change vs veh, GK / RFU, ZNF148 / Fold change vs veh, ZNF148 / RFU, TAF9 / Fold change vs veh, TAF9 / RFU, SLC1A5 / Fold change vs veh, SLC1A5 / RFU, SLMO2 / Fold change vs veh, SLMO2 / RFU, ABCC4 / Fold change vs veh, ABCC4 / RFU, LOC101060439 /// RAP1B / Fold change vs veh, LOC101060439 /// RAP1B / RFU, RFX7 / Fold change vs veh, RFX7 / RFU, GTPBP10 / Fold change vs veh, GTPBP10 / RFU, CNEP1R1 / Fold change vs veh, CNEP1R1 / RFU, BIVM-ERCC5 /// ERCC5 / Fold change vs veh, BIVM-ERCC5 /// ERCC5 / RFU, ILF3 / Fold change vs veh, ILF3 / RFU 11762660_at / Fold change /veh 11762660_at / RFU VCAN (11757783_s_at) / Fold change /veh VCAN (11757783_s_at) / RFU DDX43 (11728927_at) / Fold change /veh DDX43 (11728927_at) / RFU KRT8 (11758188_x_at) / Fold change /veh KRT8 (11758188_x_at) / RFU NKD1 (11759106_at) / Fold change /veh NKD1 (11759106_at) / RFU SRD5A1 (11742802_a_at) / Fold change /veh SRD5A1 (11742802_a_at) / RFU TPSAB1 /// TPSB2 (11721975_s_at) / Fold change /veh TPSAB1 /// TPSB2 (11721975_s_at) / RFU GSTM3 (11746129_a_at) / Fold change /veh GSTM3 (11746129_a_at) / RFU IL23R (11737362_x_at) / Fold change /veh IL23R (11737362_x_at) / RFU TMEM51 (11727254_a_at) / Fold change /veh TMEM51 (11727254_a_at) / RFU PIWIL2 (11732686_x_at) / Fold change /veh PIWIL2 (11732686_x_at) / RFU ORM1 (11744905_x_at) / Fold change /veh ORM1 (11744905_x_at) / RFU CCDC152 (11743942_at) / Fold change /veh CCDC152 (11743942_at) / RFU ECM1 (11717891_a_at) / Fold change /veh ECM1 (11717891_a_at) / RFU IL23R (11748794_a_at) / Fold change /veh IL23R (11748794_a_at) / RFU TNFAIP8L3 (11732012_x_at) / Fold change /veh TNFAIP8L3 (11732012_x_at) / RFU MBOAT4 (11741988_at) / Fold change /veh MBOAT4 (11741988_at) / RFU 11764193_at / Fold change /veh 11764193_at / RFU TMEM53 (11763286_at) / Fold change /veh TMEM53 (11763286_at) / RFU MAGEB2 (11727129_at) / Fold change /veh MAGEB2 (11727129_at) / RFU TMEM200A (11744735_a_at) / Fold change /veh TMEM200A (11744735_a_at) / RFU CCDC152 (11751479_a_at) / Fold change /veh CCDC152 (11751479_a_at) / RFU FAM211A (11726209_a_at) / Fold change /veh FAM211A (11726209_a_at) / RFU RGS16 (11746705_a_at) / Fold change /veh RGS16 (11746705_a_at) / RFU VCAN (11755009_s_at) / Fold change /veh VCAN (11755009_s_at) / RFU RHOB (11743442_s_at) / Fold change /veh RHOB (11743442_s_at) / RFU RGS16 (11720943_a_at) / Fold change /veh RGS16 (11720943_a_at) / RFU RGS16 (11720944_at) / Fold change /veh RGS16 (11720944_at) / RFU, VPS4B / Fold change vs veh, VPS4B / RFU, CREB1 / Fold change vs veh, CREB1 / RFU, DNAJC13 / Fold change vs veh, DNAJC13 / RFU, GNAQ / Fold change vs veh, GNAQ / RFU, CDK5R1 / Fold change vs veh, CDK5R1 / RFU, ZRANB3 / Fold change vs veh, ZRANB3 / RFU, CUL4A / Fold change vs veh, CUL4A / RFU, CCNY / Fold change vs veh, CCNY / RFU, UFL1 / Fold change vs veh, UFL1 / RFU, COG3 / Fold change vs veh, COG3 / RFU, DIAPH2 / Fold change vs veh, DIAPH2 / RFU, SKA2 / Fold change vs veh, SKA2 / RFU, AFF3 / Fold change vs veh, AFF3 / RFU, LMF1 / Fold change vs veh, LMF1 / RFU, IPO11 / Fold change vs veh, IPO11 / RFU, DFFB / Fold change vs veh, DFFB / RFU, FOXP1 / Fold change vs veh, FOXP1 / RFU, CARD8 / Fold change vs veh, CARD8 / RFU, STRN3 / Fold change vs veh, STRN3 / RFU, ADK / Fold change vs veh, ADK / RFU, RASSF2 / Fold change vs veh, RASSF2 / RFU, WIPF1 / Fold change vs veh, WIPF1 / RFU, LARP1B / Fold change vs veh, LARP1B / RFU, RASA1 / Fold change vs veh, RASA1 / RFU, RB1 / Fold change vs veh, RB1 / RFU, PPFIA1 / Fold change vs veh, PPFIA1 / RFU, MAT2A / Fold change vs veh, MAT2A / RFU, CCT5 / Fold change vs veh, CCT5 / RFU, WDR92 / Fold change vs veh, WDR92 / RFU, CUX1 / Fold change vs veh, CUX1 / RFU, TTC7A / Fold change vs veh, TTC7A / RFU, TMEM135 / Fold change vs veh, TMEM135 / RFU, DEPTOR / Fold change vs veh, DEPTOR / RFU, CPM / Fold change vs veh, CPM / RFU, DNAJB6 / Fold change vs veh, DNAJB6 / RFU, CACNA2D3 / Fold change vs veh, CACNA2D3 / RFU, DTX4 / Fold change vs veh, DTX4 / RFU, TFCP2 / Fold change vs veh, TFCP2 / RFU, GMCL1 /// GMCL1P1 / Fold change vs veh, GMCL1 /// GMCL1P1 / RFU, AEBP2 / Fold change vs veh, AEBP2 / RFU, SNHG1 /// SNORD22 /// SNORD25 /// SNORD26 /// SNORD27 /// SNORD28 /// SNORD29 /// SNORD31 / Fold change vs veh, SNHG1 /// SNORD22 /// SNORD25 /// SNORD26 /// SNORD27 /// SNORD28 /// SNORD29 /// SNORD31 / Fold change (Aza/veh), C12orf56 (ProbeSet 11735607_a_at) / Fold change (ACY-1035/veh), C12orf56 (ProbeSet 11735607_a_at) / Fold change (Aza/veh), FGFR1OP (ProbeSet 11751329_s_at) / Fold change (ACY-1035/veh), FGFR1OP (ProbeSet 11751329_s_at) / Fold change (Aza/veh), VPS36 (ProbeSet 11739960_a_at) / Fold change (ACY-1035/veh), VPS36 (ProbeSet 11739960_a_at) / RFU SYPL1 (11715823_x_at) / Fold change /veh SYPL1 (11715823_x_at) / RFU IGFBP7 (11715501_s_at) / Fold change /veh IGFBP7 (11715501_s_at) / RFU REEP3 (11722064_at) / Fold change /veh REEP3 (11722064_at) / RFU IGLL1 (11728026_x_at) / Fold change /veh IGLL1 (11728026_x_at): dose or concentration left out as unconfirmed.

For `Nc1ccc(-c2cccs2)cc1NC(=O)c1ccc2c(c1)cc(C1CC1)n2CCN1CCOCC1` [ACY-1035], the “Fold change /veh PIWIL2 (11732686_x_at)” value is recorded as 0.84.
